Source: the supplement of paper PMC13380429

Key:
Settings in all cases: 72 h
[1] = tested on: Calu-3; assay: drug sensitivity score (DSS) for viability; higher = more toxic; extreme values may be limits of the assay
[2] = tested on: U2OS; assay: as above
[3] = tested on: Caco-2; assay: as above
[4] = tested on: HepG2; assay: as above
[5] = tested on: Vero E6; assay: as above
[6] = tested on: Calu-3; assay: cell viability relative to DMSO; higher = less toxic
[7] = tested on: U2OS; assay: as above
[8] = tested on: Caco-2; assay: as above
[9] = tested on: HepG2; assay: as above
[10] = tested on: Vero E6; assay: as above
[11] = tested on: Calu-3; assay: relative viability EC50 (midpoint between 100% and the lowest measured viability); higher = less toxic
[12] = tested on: U2OS; assay: as above
[13] = tested on: Caco-2; assay: as above
[14] = tested on: HepG2; assay: as above
[15] = tested on: Vero E6; assay: as above

O=C(O)Cc1ccc2c(c1)C(=O)c1ccccc1CO2 [isoxepac]
drug sensitivity score [1]: 0 | drug sensitivity score [2]: 0 | drug sensitivity score [3]: 0 | drug sensitivity score [4]: 0 | drug sensitivity score [5]: 0 | cell viability ([6]; 1 nM): 96.9% | cell viability ([6]; 10 nM): 97.9% | cell viability ([6]; 100 nM): 98.5% | cell viability ([6]; 1000 nM): 101% | cell viability ([6]; 10000 nM): 98.5% | cell viability ([7]; 1 nM): 102% | cell viability ([7]; 10 nM): 95.4% | cell viability ([7]; 100 nM): 101% | cell viability ([7]; 1000 nM): 98.3% | cell viability ([7]; 10000 nM): 101% | cell viability ([8]; 1 nM): 94.7% | cell viability ([8]; 10 nM): 102% | cell viability ([8]; 100 nM): 109% | cell viability ([8]; 1000 nM): 100% | cell viability ([8]; 10000 nM): 93.6% | cell viability ([9]; 1 nM): 99.1% | cell viability ([9]; 10 nM): 103% | cell viability ([9]; 100 nM): 97.5% | cell viability ([9]; 1000 nM): 101% | cell viability ([9]; 10000 nM): 91.2% | cell viability ([10]; 1 nM): 98.3% | cell viability ([10]; 10 nM): 97.5% | cell viability ([10]; 100 nM): 101% | cell viability ([10]; 1000 nM): 101% | cell viability ([10]; 10000 nM): 100% | relative viability EC50 [11]: > 10 µM | relative viability EC50 [12]: > 10 µM | relative viability EC50 [13]: > 10 µM | relative viability EC50 [14]: > 10 µM | relative viability EC50 [15]: > 10 µM

COc1cc(C(C)=O)ccc1O [apocynin]
drug sensitivity score [1]: 0 | drug sensitivity score [2]: 0 | drug sensitivity score [3]: 0 | drug sensitivity score [4]: 0 | drug sensitivity score [5]: 0 | cell viability ([6]; 1 nM): 95.2% | cell viability ([6]; 10 nM): 89.6% | cell viability ([6]; 100 nM): 91.5% | cell viability ([6]; 1000 nM): 89.5% | cell viability ([6]; 10000 nM): 105% | cell viability ([7]; 1 nM): 99.8% | cell viability ([7]; 10 nM): 97.9% | cell viability ([7]; 100 nM): 101% | cell viability ([7]; 1000 nM): 96.2% | cell viability ([7]; 10000 nM): 98.2% | cell viability ([8]; 1 nM): 104% | cell viability ([8]; 10 nM): 94.2% | cell viability ([8]; 100 nM): 100% | cell viability ([8]; 1000 nM): 86.8% | cell viability ([8]; 10000 nM): 93.9% | cell viability ([9]; 1 nM): 95.8% | cell viability ([9]; 10 nM): 95.8% | cell viability ([9]; 100 nM): 104% | cell viability ([9]; 1000 nM): 98.8% | cell viability ([9]; 10000 nM): 96.8% | cell viability ([10]; 1 nM): 97.8% | cell viability ([10]; 10 nM): 100% | cell viability ([10]; 100 nM): 96.6% | cell viability ([10]; 1000 nM): 98.8% | cell viability ([10]; 10000 nM): 93.6% | relative viability EC50 [11]: > 10 µM | relative viability EC50 [12]: > 10 µM | relative viability EC50 [13]: > 10 µM | relative viability EC50 [14]: > 10 µM | relative viability EC50 [15]: > 10 µM

CC(C(=O)O)c1ccc2c(c1)[nH]c1ccc(Cl)cc12 (stereo not given) [carprofen]
drug sensitivity score [1]: 0 | drug sensitivity score [2]: 0 | drug sensitivity score [3]: 0 | drug sensitivity score [4]: 0 | drug sensitivity score [5]: 0 | cell viability ([6]; 1 nM): 96.5% | cell viability ([6]; 10 nM): 95.5% | cell viability ([6]; 100 nM): 104% | cell viability ([6]; 1000 nM): 104% | cell viability ([6]; 10000 nM): 94% | cell viability ([7]; 1 nM): 96.5% | cell viability ([7]; 10 nM): 102% | cell viability ([7]; 100 nM): 96.1% | cell viability ([7]; 1000 nM): 100% | cell viability ([7]; 10000 nM): 98.7% | cell viability ([8]; 1 nM): 96.4% | cell viability ([8]; 10 nM): 96.5% | cell viability ([8]; 100 nM): 88.4% | cell viability ([8]; 1000 nM): 95.7% | cell viability ([8]; 10000 nM): 94.6% | cell viability ([9]; 1 nM): 103% | cell viability ([9]; 10 nM): 101% | cell viability ([9]; 100 nM): 90.6% | cell viability ([9]; 1000 nM): 96.5% | cell viability ([9]; 10000 nM): 99.6% | cell viability ([10]; 1 nM): 107% | cell viability ([10]; 10 nM): 101% | cell viability ([10]; 100 nM): 115% | cell viability ([10]; 1000 nM): 99.4% | cell viability ([10]; 10000 nM): 101% | relative viability EC50 [11]: > 10 µM | relative viability EC50 [12]: > 10 µM | relative viability EC50 [13]: > 10 µM | relative viability EC50 [14]: > 10 µM | relative viability EC50 [15]: > 10 µM

CC(SC(=O)c1cccs1)C(=O)NCC(=O)O (stereo not given) [stepronin]
drug sensitivity score [1]: 0 | drug sensitivity score [2]: 0 | drug sensitivity score [3]: 0 | drug sensitivity score [4]: 0.3 | drug sensitivity score [5]: 0 | cell viability ([6]; 1 nM): 91.9% | cell viability ([6]; 10 nM): 106% | cell viability ([6]; 100 nM): 97.6% | cell viability ([6]; 1000 nM): 110% | cell viability ([6]; 10000 nM): 97.5% | cell viability ([7]; 1 nM): 96.6% | cell viability ([7]; 10 nM): 104% | cell viability ([7]; 100 nM): 93.5% | cell viability ([7]; 1000 nM): 99% | cell viability ([7]; 10000 nM): 97.1% | cell viability ([8]; 1 nM): 112% | cell viability ([8]; 10 nM): 84.4% | cell viability ([8]; 100 nM): 96.1% | cell viability ([8]; 1000 nM): 103% | cell viability ([8]; 10000 nM): 103% | cell viability ([9]; 1 nM): 106% | cell viability ([9]; 10 nM): 102% | cell viability ([9]; 100 nM): 105% | cell viability ([9]; 1000 nM): 88.6% | cell viability ([9]; 10000 nM): 97% | cell viability ([10]; 1 nM): 109% | cell viability ([10]; 10 nM): 91.9% | cell viability ([10]; 100 nM): 108% | cell viability ([10]; 1000 nM): 101% | cell viability ([10]; 10000 nM): 98.8% | relative viability EC50 [11]: > 10 µM | relative viability EC50 [12]: > 10 µM | relative viability EC50 [13]: > 10 µM | relative viability EC50 [14]: > 10 µM | relative viability EC50 [15]: > 10 µM

COc1cc(NS(C)(=O)=O)ccc1Nc1c2ccccc2nc2ccccc12 [amsacrine]
drug sensitivity score [1]: 10.3 | drug sensitivity score [2]: 3.9 | drug sensitivity score [3]: 6.1 | drug sensitivity score [4]: 12.6 | drug sensitivity score [5]: 7.4 | cell viability ([6]; 1 nM): 105% | cell viability ([6]; 10 nM): 93.7% | cell viability ([6]; 100 nM): 80.3% | cell viability ([6]; 1000 nM): 61.5% | cell viability ([6]; 10000 nM): 12.3% | cell viability ([7]; 1 nM): 103% | cell viability ([7]; 10 nM): 98.1% | cell viability ([7]; 100 nM): 99.5% | cell viability ([7]; 1000 nM): 96.9% | cell viability ([7]; 10000 nM): 37.2% | cell viability ([8]; 1 nM): 101% | cell viability ([8]; 10 nM): 90.9% | cell viability ([8]; 100 nM): 97.3% | cell viability ([8]; 1000 nM): 91.6% | cell viability ([8]; 10000 nM): 14.3% | cell viability ([9]; 1 nM): 87.4% | cell viability ([9]; 10 nM): 89.9% | cell viability ([9]; 100 nM): 78.5% | cell viability ([9]; 1000 nM): 48.8% | cell viability ([9]; 10000 nM): 29% | cell viability ([10]; 1 nM): 93% | cell viability ([10]; 10 nM): 89.3% | cell viability ([10]; 100 nM): 94.6% | cell viability ([10]; 1000 nM): 65.2% | cell viability ([10]; 10000 nM): 41.7% | relative viability EC50 [11]: 0.866 µM | relative viability EC50 [12]: 2.79 µM | relative viability EC50 [13]: 2.35 µM | relative viability EC50 [14]: 0.241 µM | relative viability EC50 [15]: 0.677 µM

CC(C)(C)NCC(O)CSc1nc(-c2ccc(C(N)=O)s2)cs1 (stereo not given) [arotinolol]
drug sensitivity score [1]: 0 | drug sensitivity score [2]: 0 | drug sensitivity score [3]: 0 | drug sensitivity score [4]: 0 | drug sensitivity score [5]: 0 | cell viability ([6]; 1 nM): 102% | cell viability ([6]; 10 nM): 98.4% | cell viability ([6]; 100 nM): 107% | cell viability ([6]; 1000 nM): 94.1% | cell viability ([6]; 10000 nM): 99.9% | cell viability ([7]; 1 nM): 96% | cell viability ([7]; 10 nM): 100% | cell viability ([7]; 100 nM): 99.9% | cell viability ([7]; 1000 nM): 102% | cell viability ([7]; 10000 nM): 94.6% | cell viability ([8]; 1 nM): 105% | cell viability ([8]; 10 nM): 104% | cell viability ([8]; 100 nM): 90.6% | cell viability ([8]; 1000 nM): 106% | cell viability ([8]; 10000 nM): 107% | cell viability ([9]; 1 nM): 88.7% | cell viability ([9]; 10 nM): 96.9% | cell viability ([9]; 100 nM): 100% | cell viability ([9]; 1000 nM): 92.8% | cell viability ([9]; 10000 nM): 104% | cell viability ([10]; 1 nM): 103% | cell viability ([10]; 10 nM): 98.1% | cell viability ([10]; 100 nM): 106% | cell viability ([10]; 1000 nM): 108% | cell viability ([10]; 10000 nM): 98.4% | relative viability EC50 [11]: > 10 µM | relative viability EC50 [12]: > 10 µM | relative viability EC50 [13]: > 10 µM | relative viability EC50 [14]: > 10 µM | relative viability EC50 [15]: > 10 µM

COc1cc(C)[nH]c(=O)c1CNC(=O)c1c(C)n([C@H](C)C2CCOCC2)c2ccccc12 [CPI-360]
drug sensitivity score [1]: 0 | drug sensitivity score [2]: 0 | drug sensitivity score [3]: 0 | drug sensitivity score [4]: 0 | drug sensitivity score [5]: 0 | cell viability ([6]; 1 nM): 101% | cell viability ([6]; 10 nM): 113% | cell viability ([6]; 100 nM): 101% | cell viability ([6]; 1000 nM): 105% | cell viability ([6]; 10000 nM): 95.7% | cell viability ([7]; 1 nM): 99.7% | cell viability ([7]; 10 nM): 101% | cell viability ([7]; 100 nM): 100% | cell viability ([7]; 1000 nM): 102% | cell viability ([7]; 10000 nM): 101% | cell viability ([8]; 1 nM): 107% | cell viability ([8]; 10 nM): 106% | cell viability ([8]; 100 nM): 99.2% | cell viability ([8]; 1000 nM): 107% | cell viability ([8]; 10000 nM): 95.7% | cell viability ([9]; 1 nM): 107% | cell viability ([9]; 10 nM): 97.6% | cell viability ([9]; 100 nM): 96.7% | cell viability ([9]; 1000 nM): 90.7% | cell viability ([9]; 10000 nM): 92.2% | cell viability ([10]; 1 nM): 108% | cell viability ([10]; 10 nM): 102% | cell viability ([10]; 100 nM): 108% | cell viability ([10]; 1000 nM): 96.3% | cell viability ([10]; 10000 nM): 104% | relative viability EC50 [11]: > 10 µM | relative viability EC50 [12]: > 10 µM | relative viability EC50 [13]: > 10 µM | relative viability EC50 [14]: > 10 µM | relative viability EC50 [15]: > 10 µM
